Data taken from ChEMBL document CHEMBL5518244, “Design, Synthesis, and Biological Evaluation of a Novel NIK Inhibitor with Anti-Inflammatory and Hepatoprotective Effects for Sepsis Treatment” (J Med Chem, 2024).
Activity calls are given as the source filed them. The rule behind the calls is not given here.

Experiments:
[1] = Metabolic stability in rat liver microsomes assessed as intrinsic clearance at 1 uM measured upto 60 mins by LC-MS/MS analysis; assay type: ADME, Microsome; conditions: read-out: CLH
Macrophage = assay: Anti-inflammatory activity in mouse macrophages extracted from abdominal activity assessed as inhibition of LPS-induced nitric oxide production at 1 uM measured after 22 hrs by Griess reagent assay relative to control; assay type: functional, cell-based
Mus musculus [2] = assay: Antisepsis effect in LPS-induced sepsis C57BL/6J mouse model assessed as prevention of infiltration of inflammatory cells at 10 mg/kg, ip measured after 7 days by immunohistochemistry staining of F4/80 imaging based assay; assay type: functional, organism-based; conditions: time 7.0 day
[3] = Metabolic stability in rat liver microsomes assessed as half life at 1 uM measured upto 60 mins by LC-MS/MS analysis; assay type: ADME, Microsome
Mus musculus [4] = assay: Antisepsis effect in LPS-induced sepsis C57BL/6J mouse model assessed as prevention of lung injury at 10 mg/kg, ip measured after 7 days by hematoxylin and eosin staining based assay; assay type: functional, organism-based; conditions: time 7.0 day
[5] = Cmax in C57BL/6J mouse at 10 mg/kg, po measured upto 24 hrs by LC-MS/MS analysis; assay type: ADME, organism-based; conditions: in vivo
Mus musculus [6] = assay: Antisepsis effect in LPS-induced sepsis C57BL/6J mouse model assessed as prevention of liver injury by measuring decrease in serum AST level at 10 mg/kg, ip measured after 7 days by biochemical assay; assay type: functional, organism-based; conditions: time 7.0 day
Mus musculus [7] = assay: Antisepsis effect in LPS-induced sepsis C57BL/6J mouse model assessed as decrease in serum IL-1beta level at 10 mg/kg, ip measured after 7 days by ELISA; assay type: functional, organism-based; conditions: time 7.0 day
Mus musculus [8] = assay: Antisepsis effect in LPS-induced sepsis C57BL/6J mouse model assessed as protection by measuring mouse survival at 10 mg/kg, ip measured after 7 days relative to control; assay type: functional, organism-based; conditions: time 7.0 day
[9] = AUCinf in C57BL/6J mouse at 10 mg/kg, po measured upto 24 hrs by LC-MS/MS analysis; assay type: ADME, organism-based; conditions: in vivo
[10] = Metabolic stability in mouse liver microsomes assessed as intrinsic clearance at 1 uM measured upto 60 mins by LC-MS/MS analysis; assay type: ADME, Microsome; conditions: read-out: CLH
Mus musculus [11] = assay: Inhibition of noncanonical NF-kappaB signaling pathway LPS-induced sepsis C57BL/6J mouse model assessed as increase in p100 protein level at 10 mg/kg, ip measured after 7 days by immunoblotting analysis; assay type: functional, organism-based; conditions: time 7.0 day
Mus musculus [12] = assay: Antisepsis effect in LPS-induced sepsis C57BL/6J mouse model assessed as decrease in serum IFN-gamma level at 10 mg/kg, ip measured after 7 days by ELISA; assay type: functional, organism-based; conditions: time 7.0 day
Mus musculus [13] = assay: Antisepsis effect in LPS-induced sepsis C57BL/6J mouse model assessed as prevention of liver injury by measuring decrease in serum AKP level at 10 mg/kg, ip measured after 7 days by biochemical assay; assay type: functional, organism-based; conditions: time 7.0 day
[14] = AUClast in C57BL/6J mouse at 10 mg/kg, iv measured upto 24 hrs by LC-MS/MS analysis; assay type: ADME, organism-based; conditions: in vivo
COS-7 [15] = assay: Cytotoxicity against African green monkey COS-7 cells assessed as cell viability at 1 uM by CCK8 assay; assay type: toxicity, cell-based; conditions: chlorocebus aethiops, cos-7, 1 µM
Mus musculus [16] = assay: Antisepsis effect in LPS-induced sepsis C57BL/6J mouse model assessed as prevention of kidney injury at 10 mg/kg, ip measured after 7 days by hematoxylin and eosin staining based assay; assay type: functional, organism-based; conditions: time 7.0 day
Mus musculus [17] = assay: Inhibition of noncanonical NF-kappaB signaling pathway LPS-induced sepsis C57BL/6J mouse model assessed as decrease in p52 protein level at 10 mg/kg, ip measured after 7 days by immunoblotting analysis; assay type: functional, organism-based; conditions: time 7.0 day
[18] = Tmax in C57BL/6J mouse at 10 mg/kg, po measured upto 24 hrs by LC-MS/MS analysis; assay type: ADME, organism-based; conditions: in vivo
[19] = Clearance in C57BL/6J mouse at 10 mg/kg, iv measured upto 24 hrs by LC-MS/MS analysis; assay type: ADME, organism-based; conditions: in vivo
RAW264.7 [20] = assay: Anti-inflammatory activity in mouse RAW264.7 cells assessed as suppression of LPS/CD40-induced IL-1beta secretion at 5 uM pretreated for 2 hrs followed stimulated with LPS/CD40 for 22 hrs by ELISA; assay type: functional, cell-based; conditions: time 24.0 hrs
Mus musculus [21] = assay: Antisepsis effect in LPS-induced sepsis C57BL/6J mouse model assessed as prevention of liver injury by measuring decrease in serum ALT level at 10 mg/kg, ip measured after 7 days by biochemical assay; assay type: functional, organism-based; conditions: time 7.0 day
[22] = target: Mitogen-activated protein kinase 8 (Homo sapiens, UniProt P45983); assay: Inhibition of JNK1 (unknown origin) by ADP-Glo Kinase assay
[23] = target: AMP-activated protein kinase (AMPK) alpha-1/beta-1/gamma-1 (Homo sapiens, UniProt P54619+Q13131+Q9Y478); assay: Inhibition of AMPKalpha1/beta1/gamma1 (unknown origin) by ADP-Glo Kinase assay; assay type: protein-complex assay
[24] = Half life in C57BL/6J mouse at 10 mg/kg, po measured upto 24 hrs by LC-MS/MS analysis; assay type: ADME, organism-based; conditions: in vivo
RAW264.7 [25] = assay: Anti-inflammatory activity in mouse RAW264.7 cells assessed as suppression of LPS/CD40-induced IL-6 secretion at 5 uM pretreated for 2 hrs followed stimulated with LPS/CD40 for 22 hrs by ELISA; assay type: functional, cell-based; conditions: time 24.0 hrs
[26] = target: T1, Mitogen-activated protein kinase kinase kinase 14 (Homo sapiens, UniProt Q99558); assay: Inhibition of NIK (unknown origin) expressed in COS-7 cells co-expressing NF-KappaB luciferase reporter assessed as suppression of luciferase reporter measured after 24 by beta-Gal activity assay; assay type: cell-based
RAW264.7 [27] = assay: Anti-inflammatory activity in mouse RAW264.7 cells assessed as suppression of LPS/CD40-induced TNFalpha secretion at 5 uM pretreated for 2 hrs followed stimulated with LPS/CD40 for 22 hrs by ELISA; assay type: functional, cell-based; conditions: time 24.0 hrs
Mus musculus [28] = assay: Antisepsis effect in LPS-induced sepsis C57BL/6J mouse model assessed as decrease in serum TNFalpha level at 10 mg/kg, ip measured after 7 days by ELISA; assay type: functional, organism-based; conditions: time 7.0 day
[29] = Metabolic stability in mouse liver microsomes assessed as half life at 1 uM measured upto 60 mins by LC-MS/MS analysis; assay type: ADME, Microsome
[30] = Half life in C57BL/6J mouse at 10 mg/kg, iv measured upto 24 hrs by LC-MS/MS analysis; assay type: ADME, organism-based; conditions: in vivo
COS-7 [31] = assay: Cytotoxicity against African green monkey COS-7 cells assessed as cell viability at 5 uM by CCK8 assay; assay type: toxicity, cell-based; conditions: chlorocebus aethiops, cos-7, 5 µM
[32] = Initial plasma concentration in C57BL/6J mouse at 10 mg/kg, iv measured upto 24 hrs by LC-MS/MS analysis; assay type: ADME, organism-based
Mus musculus [33] = assay: Antisepsis effect in LPS-induced sepsis C57BL/6J mouse model assessed as decrease in serum IL-6 level at 10 mg/kg, ip measured after 7 days by ELISA; assay type: functional, organism-based; conditions: time 7.0 day
[34] = target: T1, Mitogen-activated protein kinase kinase kinase 14; assay: Inhibition of NIK (unknown origin) incubated 30 to 60 mins by ADP-Glo Kinase
RAW264.7 [35] = assay: Cytotoxicity against mouse RAW264.7 cells assessed as cell viability at 1 uM by CCK8 assay; assay type: toxicity, cell-based; conditions: raw264.7, 1 µM
Mus musculus [36] = assay: Antisepsis effect in LPS-induced sepsis C57BL/6J mouse model assessed as decrease in serum CXCL-12 level at 10 mg/kg, ip measured after 7 days by ELISA; assay type: functional, organism-based; conditions: time 7.0 day
[37] = AUClast in C57BL/6J mouse at 10 mg/kg, po measured upto 24 hrs by LC-MS/MS analysis; assay type: ADME, organism-based; conditions: in vivo
Mus musculus [38] = assay: Antisepsis effect in LPS-induced sepsis C57BL/6J mouse model assessed as prevention of tubular injury at 10 mg/kg, ip measured after 7 days by hematoxylin and eosin staining based assay; assay type: functional, organism-based; conditions: time 7.0 day
Mus musculus [39] = assay: Antisepsis effect in LPS-induced sepsis C57BL/6J mouse model assessed as prevention of necrosis in liver tissue at 10 mg/kg, ip measured after 7 days by hematoxylin and eosin staining based assay; assay type: functional, organism-based; conditions: time 7.0 day
Mus musculus [40] = assay: Antisepsis effect in LPS-induced sepsis C57BL/6J mouse model assessed as protection by measuring mouse survival at 10 mg/kg, ip measured at 48 hrs relative to control; assay type: functional, organism-based
RAW264.7 [41] = assay: Cytotoxicity against mouse RAW264.7 cells assessed as cell viability at 5 uM by CCK8 assay; assay type: toxicity, cell-based; conditions: raw264.7, 5 µM
[42] = AUCinf in C57BL/6J mouse at 10 mg/kg, iv measured upto 24 hrs by LC-MS/MS analysis; assay type: ADME, organism-based; conditions: in vivo

T1 sequence (Q99558 whole entry): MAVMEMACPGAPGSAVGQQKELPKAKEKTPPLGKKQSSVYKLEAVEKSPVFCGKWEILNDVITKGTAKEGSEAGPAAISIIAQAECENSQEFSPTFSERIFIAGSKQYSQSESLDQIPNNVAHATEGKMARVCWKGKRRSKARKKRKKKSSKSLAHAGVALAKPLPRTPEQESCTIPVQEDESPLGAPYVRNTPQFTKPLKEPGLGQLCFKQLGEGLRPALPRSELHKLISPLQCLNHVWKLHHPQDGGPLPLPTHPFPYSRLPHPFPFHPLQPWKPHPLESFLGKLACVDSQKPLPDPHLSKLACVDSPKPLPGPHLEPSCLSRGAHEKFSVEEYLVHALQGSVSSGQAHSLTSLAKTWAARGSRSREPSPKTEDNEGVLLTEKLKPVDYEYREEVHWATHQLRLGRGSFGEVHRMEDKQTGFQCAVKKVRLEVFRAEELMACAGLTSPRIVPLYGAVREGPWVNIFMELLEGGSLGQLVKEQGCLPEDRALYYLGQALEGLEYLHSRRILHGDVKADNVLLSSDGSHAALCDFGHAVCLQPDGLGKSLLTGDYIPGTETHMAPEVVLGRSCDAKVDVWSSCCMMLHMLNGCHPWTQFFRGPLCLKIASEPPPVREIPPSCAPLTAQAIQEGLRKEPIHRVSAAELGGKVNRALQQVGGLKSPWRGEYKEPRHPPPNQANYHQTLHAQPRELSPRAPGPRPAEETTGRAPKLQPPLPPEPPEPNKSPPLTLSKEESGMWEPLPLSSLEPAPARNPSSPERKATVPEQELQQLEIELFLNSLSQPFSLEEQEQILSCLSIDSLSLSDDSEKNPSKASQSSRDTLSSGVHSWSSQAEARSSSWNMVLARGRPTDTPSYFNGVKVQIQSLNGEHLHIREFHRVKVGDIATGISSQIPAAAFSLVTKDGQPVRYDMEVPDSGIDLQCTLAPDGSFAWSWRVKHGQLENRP
Chain of AMP-activated protein kinase (AMPK) alpha-1/beta-1/gamma-1 (P54619 whole entry): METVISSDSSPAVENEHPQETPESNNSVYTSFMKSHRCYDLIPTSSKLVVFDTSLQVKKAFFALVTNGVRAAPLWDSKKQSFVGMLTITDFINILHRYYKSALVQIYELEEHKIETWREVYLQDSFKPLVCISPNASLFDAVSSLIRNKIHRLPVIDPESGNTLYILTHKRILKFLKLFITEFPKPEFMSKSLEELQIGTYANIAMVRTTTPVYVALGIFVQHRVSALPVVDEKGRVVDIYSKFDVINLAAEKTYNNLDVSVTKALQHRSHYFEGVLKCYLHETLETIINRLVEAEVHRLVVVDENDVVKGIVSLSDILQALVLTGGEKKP
Chain of AMP-activated protein kinase (AMPK) alpha-1/beta-1/gamma-1 (Q9Y478 whole entry): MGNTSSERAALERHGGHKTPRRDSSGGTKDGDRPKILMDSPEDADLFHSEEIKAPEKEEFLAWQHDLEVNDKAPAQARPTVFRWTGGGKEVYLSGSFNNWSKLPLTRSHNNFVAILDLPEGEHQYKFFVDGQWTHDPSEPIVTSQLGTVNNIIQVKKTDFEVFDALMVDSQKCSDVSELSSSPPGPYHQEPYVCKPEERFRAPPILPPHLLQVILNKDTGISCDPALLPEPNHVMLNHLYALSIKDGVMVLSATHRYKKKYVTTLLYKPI
Chain of AMP-activated protein kinase (AMPK) alpha-1/beta-1/gamma-1 (Q13131 whole entry): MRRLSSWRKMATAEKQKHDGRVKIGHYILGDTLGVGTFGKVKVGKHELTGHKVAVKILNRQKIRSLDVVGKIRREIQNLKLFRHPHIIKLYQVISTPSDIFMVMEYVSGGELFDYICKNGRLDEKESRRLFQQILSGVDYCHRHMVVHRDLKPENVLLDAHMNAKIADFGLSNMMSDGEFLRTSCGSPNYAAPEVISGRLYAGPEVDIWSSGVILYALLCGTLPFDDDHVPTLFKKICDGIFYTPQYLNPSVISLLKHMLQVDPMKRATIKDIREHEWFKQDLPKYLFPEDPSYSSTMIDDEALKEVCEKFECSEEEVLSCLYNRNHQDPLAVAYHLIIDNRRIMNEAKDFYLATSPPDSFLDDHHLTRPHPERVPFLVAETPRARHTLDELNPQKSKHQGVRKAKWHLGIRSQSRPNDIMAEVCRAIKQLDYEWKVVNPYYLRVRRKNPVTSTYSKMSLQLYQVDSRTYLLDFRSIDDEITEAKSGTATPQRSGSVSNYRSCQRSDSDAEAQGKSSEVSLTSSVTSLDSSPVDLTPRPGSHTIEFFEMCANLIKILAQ
Chain of Mitogen-activated protein kinase 8 (P45983 whole entry): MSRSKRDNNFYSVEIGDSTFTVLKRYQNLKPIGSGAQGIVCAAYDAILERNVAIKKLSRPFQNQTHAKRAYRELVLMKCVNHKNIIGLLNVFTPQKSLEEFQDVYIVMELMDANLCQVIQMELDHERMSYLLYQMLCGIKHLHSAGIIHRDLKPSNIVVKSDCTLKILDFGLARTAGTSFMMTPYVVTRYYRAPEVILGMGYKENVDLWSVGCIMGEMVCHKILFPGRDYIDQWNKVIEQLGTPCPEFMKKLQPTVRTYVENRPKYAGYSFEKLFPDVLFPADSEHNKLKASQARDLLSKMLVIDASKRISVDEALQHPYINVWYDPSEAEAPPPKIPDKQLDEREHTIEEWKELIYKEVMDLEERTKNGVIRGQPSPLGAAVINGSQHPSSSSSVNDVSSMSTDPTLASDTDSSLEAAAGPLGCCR

**Q.** With `COc1cc(Nc2nccc(N3CCCn4nc(C#C[C@@](C)(O)c5nccs5)cc43)n2)cc(OC)c1` as the compound, how does the microsomal CLint at 1 µM [1] read?
**A.** 53.6 µL/min/mg

**Q.** What about the IC50 (Macrophage) of the same compound?
**A.** 78.1 µM

**Q.** And the Activity (Mus musculus [2])?
**A.** Active

**Q.** And the half-life at 1 µM [3]?
**A.** 25.9 min

**Q.** What about the Activity (Mus musculus [4]) of the same compound?
**A.** Active

**Q.** What about the Cmax [5] of the same compound?
**A.** 1.28 µg/mL

**Q.** And the Activity (Mus musculus [6])?
**A.** Active

**Q.** And the Activity (Mus musculus [7])?
**A.** Active

**Q.** And the Activity (Mus musculus [8])?
**A.** Active

**Q.** And the AUC(0-inf) [9]?
**A.** 2.55 µg·h/mL

**Q.** And the microsomal CLint at 1 µM [10]?
**A.** 71 µL/min/mg

**Q.** And the Activity (Mus musculus [11])?
**A.** Active

**Q.** What about the Activity (Mus musculus [12]) of the same compound?
**A.** Active

**Q.** And the Activity (Mus musculus [13])?
**A.** Active

**Q.** What about the AUC(0-t) at 24 h [14] of the same compound?
**A.** 3.02 µg·h/mL

**Q.** And the Activity (COS-7 [15])?
**A.** Non-Toxic

**Q.** And the Activity (Mus musculus [16])?
**A.** Active

**Q.** What about the Activity (Mus musculus [17]) of the same compound?
**A.** Active

**Q.** And the Tmax [18]?
**A.** 30 min

**Q.** And the clearance [19]?
**A.** 3.37 L/h/kg

**Q.** What about the Activity (RAW264.7 [20]) of the same compound?
**A.** Active

**Q.** What about the Activity (Mus musculus [21]) of the same compound?
**A.** Active

**Q.** And the IC50 [22]?
**A.** 541 µM

**Q.** What about the IC50 [23] of the same compound?
**A.** 288 µM

**Q.** And the half-life [24]?
**A.** 136 min

**Q.** What about the Activity (RAW264.7 [25]) of the same compound?
**A.** Active

**Q.** And the IC50 [26]?
**A.** 1.19 µM

**Q.** And the Activity (RAW264.7 [27])?
**A.** Active

**Q.** And the Activity (Mus musculus [28])?
**A.** Active

**Q.** And the half-life at 1 µM [29]?
**A.** 19.5 min

**Q.** And the half-life [30]?
**A.** 44.5 min

**Q.** And the Activity (COS-7 [31])?
**A.** Non-Toxic

**Q.** And the C0 at 24 h [32]?
**A.** 5.06 µg/mL

**Q.** And the Activity (Mus musculus [33])?
**A.** Active

**Q.** What about the IC50 [34] of the same compound?
**A.** 0.00127 µM

**Q.** What about the Activity (RAW264.7 [35]) of the same compound?
**A.** Non-Toxic

**Q.** And the Activity (Mus musculus [36])?
**A.** Active

**Q.** And the AUC(0-t) at 24 h [37]?
**A.** 2.52 µg·h/mL

**Q.** What about the Activity (Mus musculus [38]) of the same compound?
**A.** Active

**Q.** What about the Activity (Mus musculus [39]) of the same compound?
**A.** Active

**Q.** What about the Activity (Mus musculus [40]) of the same compound?
**A.** Active

**Q.** What about the Activity (RAW264.7 [41]) of the same compound?
**A.** Non-Toxic

**Q.** And the AUC(0-inf) [42]?
**A.** 3.02 µg·h/mL
